Test results published in publication PMC8222254, “Self-assembly of an anion receptor with metal-dependent kinase inhibition and potent in vitro anti-cancer properties” (Nature Communications, 2021).

Columns and labels:
Test in all cases: Kinase inhibition screen, cell-free 33P ATP assay at 10 μM
Assay type in all cases: biochemical
[1] = target: 140 purified human kinases (Homo sapiens, UniProt O43353)
Summary of the method: (§1)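 Radiometric ^33P ATP cell-free format with purified enzymes; both complexes run at 10 μM in duplicate, results plotted on a kinome map via HGNC symbols.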

[2] = target: 140 purified human kinases (Homo sapiens, UniProt P06239); settings: Lck
140 purified human kinases (Homo sapiens, UniProt P06239), sequence (P06239 whole entry): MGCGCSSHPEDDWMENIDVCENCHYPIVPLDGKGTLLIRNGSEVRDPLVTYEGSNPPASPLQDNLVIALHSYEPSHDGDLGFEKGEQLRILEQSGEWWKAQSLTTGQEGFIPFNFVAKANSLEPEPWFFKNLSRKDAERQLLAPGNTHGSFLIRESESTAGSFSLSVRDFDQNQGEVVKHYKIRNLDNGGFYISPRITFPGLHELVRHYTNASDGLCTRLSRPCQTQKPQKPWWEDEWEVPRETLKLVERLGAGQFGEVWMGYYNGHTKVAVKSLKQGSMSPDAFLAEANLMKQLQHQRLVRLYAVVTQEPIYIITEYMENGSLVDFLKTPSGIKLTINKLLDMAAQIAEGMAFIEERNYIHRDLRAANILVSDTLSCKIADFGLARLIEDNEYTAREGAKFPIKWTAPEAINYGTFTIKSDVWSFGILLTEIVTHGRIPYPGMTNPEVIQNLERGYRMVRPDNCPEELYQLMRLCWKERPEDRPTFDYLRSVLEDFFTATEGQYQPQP
Summary of the method: as §1

[3] = target: T1, 140 purified human kinases (Homo sapiens, UniProt P43403)
T1 sequence (P43403 1-619): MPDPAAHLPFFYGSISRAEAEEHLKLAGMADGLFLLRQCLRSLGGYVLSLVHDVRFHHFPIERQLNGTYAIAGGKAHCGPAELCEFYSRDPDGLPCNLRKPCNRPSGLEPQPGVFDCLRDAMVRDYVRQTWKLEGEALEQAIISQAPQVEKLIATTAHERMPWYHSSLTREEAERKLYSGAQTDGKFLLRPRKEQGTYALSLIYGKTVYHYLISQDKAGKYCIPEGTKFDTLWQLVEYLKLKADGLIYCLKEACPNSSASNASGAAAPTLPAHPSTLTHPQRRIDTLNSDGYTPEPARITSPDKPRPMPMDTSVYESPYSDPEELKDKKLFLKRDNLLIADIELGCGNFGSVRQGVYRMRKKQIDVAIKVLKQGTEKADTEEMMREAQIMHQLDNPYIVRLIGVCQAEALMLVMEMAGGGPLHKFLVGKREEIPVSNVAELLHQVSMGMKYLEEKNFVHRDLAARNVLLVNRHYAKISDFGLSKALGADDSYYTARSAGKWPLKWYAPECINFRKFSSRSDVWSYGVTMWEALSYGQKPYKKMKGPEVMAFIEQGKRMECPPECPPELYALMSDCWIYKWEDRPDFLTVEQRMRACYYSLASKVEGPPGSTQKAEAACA
Summary of the method: as §1

[4] = target: 140 purified human kinases (Homo sapiens, UniProt P49841); settings: GSK3b
Summary of the method: as §1

[5] = target: 140 purified human kinases (Homo sapiens, UniProt P51812)
140 purified human kinases (Homo sapiens, UniProt P51812), sequence (P51812 whole entry): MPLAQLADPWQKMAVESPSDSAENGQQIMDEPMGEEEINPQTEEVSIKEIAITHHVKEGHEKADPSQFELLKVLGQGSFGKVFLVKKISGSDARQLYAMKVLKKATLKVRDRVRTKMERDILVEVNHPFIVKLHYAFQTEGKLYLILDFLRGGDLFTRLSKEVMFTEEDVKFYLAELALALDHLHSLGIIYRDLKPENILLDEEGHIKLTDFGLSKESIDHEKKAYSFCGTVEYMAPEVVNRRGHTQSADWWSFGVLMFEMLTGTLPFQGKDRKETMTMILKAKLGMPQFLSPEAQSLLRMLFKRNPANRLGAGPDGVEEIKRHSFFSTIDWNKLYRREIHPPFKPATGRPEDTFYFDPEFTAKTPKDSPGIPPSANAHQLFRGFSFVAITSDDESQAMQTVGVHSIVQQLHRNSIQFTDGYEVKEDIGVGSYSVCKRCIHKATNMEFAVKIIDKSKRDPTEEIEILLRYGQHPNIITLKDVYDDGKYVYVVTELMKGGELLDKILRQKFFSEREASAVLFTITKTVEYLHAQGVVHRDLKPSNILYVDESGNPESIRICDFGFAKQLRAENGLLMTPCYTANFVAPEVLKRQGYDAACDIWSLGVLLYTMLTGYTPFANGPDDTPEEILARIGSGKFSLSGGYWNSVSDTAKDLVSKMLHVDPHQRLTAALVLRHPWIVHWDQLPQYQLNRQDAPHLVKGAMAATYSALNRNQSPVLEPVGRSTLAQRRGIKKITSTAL
Summary of the method: as §1

[6] = target: 140 purified human kinases (Homo sapiens, UniProt P53355)
Summary of the method: as §1

[7] = target: 140 purified human kinases (Homo sapiens, UniProt Q13627); settings: DYRK1A
Summary of the method: as §1

[8] = target: 140 purified human kinases (Homo sapiens, UniProt Q5TCY1)
Summary of the method: as §1

[9] = target: 140 purified human kinases (Homo sapiens, UniProt Q6IQ55)
140 purified human kinases (Homo sapiens, UniProt Q6IQ55), sequence (Q6IQ55 whole entry): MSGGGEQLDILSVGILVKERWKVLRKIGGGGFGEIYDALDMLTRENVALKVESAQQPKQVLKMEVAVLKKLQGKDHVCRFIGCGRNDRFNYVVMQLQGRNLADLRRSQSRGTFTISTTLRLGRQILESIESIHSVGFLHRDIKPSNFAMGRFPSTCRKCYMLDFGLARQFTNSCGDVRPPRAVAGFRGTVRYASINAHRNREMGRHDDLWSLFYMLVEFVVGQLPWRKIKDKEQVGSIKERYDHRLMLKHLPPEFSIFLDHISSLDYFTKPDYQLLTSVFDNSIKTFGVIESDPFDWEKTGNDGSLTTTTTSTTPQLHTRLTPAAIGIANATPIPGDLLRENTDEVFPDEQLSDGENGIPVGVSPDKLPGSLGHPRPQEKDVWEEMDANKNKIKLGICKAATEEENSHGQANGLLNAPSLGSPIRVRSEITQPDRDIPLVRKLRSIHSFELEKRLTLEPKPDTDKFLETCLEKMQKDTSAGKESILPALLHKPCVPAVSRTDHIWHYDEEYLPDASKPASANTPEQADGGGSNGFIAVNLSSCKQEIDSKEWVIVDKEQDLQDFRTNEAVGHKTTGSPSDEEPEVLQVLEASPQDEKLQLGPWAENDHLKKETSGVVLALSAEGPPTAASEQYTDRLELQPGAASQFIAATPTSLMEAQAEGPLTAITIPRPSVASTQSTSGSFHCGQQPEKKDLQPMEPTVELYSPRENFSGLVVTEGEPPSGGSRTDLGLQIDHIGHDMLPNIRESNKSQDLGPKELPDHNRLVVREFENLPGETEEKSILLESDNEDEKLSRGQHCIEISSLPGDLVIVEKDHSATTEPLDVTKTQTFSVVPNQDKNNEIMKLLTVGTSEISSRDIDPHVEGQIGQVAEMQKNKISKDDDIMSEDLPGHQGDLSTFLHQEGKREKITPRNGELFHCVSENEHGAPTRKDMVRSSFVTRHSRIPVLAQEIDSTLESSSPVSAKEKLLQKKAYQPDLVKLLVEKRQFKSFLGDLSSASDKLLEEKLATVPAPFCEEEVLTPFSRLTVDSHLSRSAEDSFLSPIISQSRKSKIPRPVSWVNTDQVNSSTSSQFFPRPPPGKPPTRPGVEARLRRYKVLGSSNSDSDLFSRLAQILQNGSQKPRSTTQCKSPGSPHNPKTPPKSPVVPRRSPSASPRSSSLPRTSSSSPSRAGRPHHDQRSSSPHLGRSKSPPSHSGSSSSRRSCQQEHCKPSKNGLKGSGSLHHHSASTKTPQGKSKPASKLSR
Summary of the method: as §1

[10] = target: 140 purified human kinases (Homo sapiens, UniProt Q86V86)
Summary of the method: as §1

[11] = target: 140 purified human kinases (Homo sapiens, UniProt Q9BUB5)
Summary of the method: as §1

[12] = target: 140 purified human kinases (Homo sapiens, UniProt Q9H4A3)
140 purified human kinases (Homo sapiens, UniProt Q9H4A3), sequence (Q9H4A3 whole entry): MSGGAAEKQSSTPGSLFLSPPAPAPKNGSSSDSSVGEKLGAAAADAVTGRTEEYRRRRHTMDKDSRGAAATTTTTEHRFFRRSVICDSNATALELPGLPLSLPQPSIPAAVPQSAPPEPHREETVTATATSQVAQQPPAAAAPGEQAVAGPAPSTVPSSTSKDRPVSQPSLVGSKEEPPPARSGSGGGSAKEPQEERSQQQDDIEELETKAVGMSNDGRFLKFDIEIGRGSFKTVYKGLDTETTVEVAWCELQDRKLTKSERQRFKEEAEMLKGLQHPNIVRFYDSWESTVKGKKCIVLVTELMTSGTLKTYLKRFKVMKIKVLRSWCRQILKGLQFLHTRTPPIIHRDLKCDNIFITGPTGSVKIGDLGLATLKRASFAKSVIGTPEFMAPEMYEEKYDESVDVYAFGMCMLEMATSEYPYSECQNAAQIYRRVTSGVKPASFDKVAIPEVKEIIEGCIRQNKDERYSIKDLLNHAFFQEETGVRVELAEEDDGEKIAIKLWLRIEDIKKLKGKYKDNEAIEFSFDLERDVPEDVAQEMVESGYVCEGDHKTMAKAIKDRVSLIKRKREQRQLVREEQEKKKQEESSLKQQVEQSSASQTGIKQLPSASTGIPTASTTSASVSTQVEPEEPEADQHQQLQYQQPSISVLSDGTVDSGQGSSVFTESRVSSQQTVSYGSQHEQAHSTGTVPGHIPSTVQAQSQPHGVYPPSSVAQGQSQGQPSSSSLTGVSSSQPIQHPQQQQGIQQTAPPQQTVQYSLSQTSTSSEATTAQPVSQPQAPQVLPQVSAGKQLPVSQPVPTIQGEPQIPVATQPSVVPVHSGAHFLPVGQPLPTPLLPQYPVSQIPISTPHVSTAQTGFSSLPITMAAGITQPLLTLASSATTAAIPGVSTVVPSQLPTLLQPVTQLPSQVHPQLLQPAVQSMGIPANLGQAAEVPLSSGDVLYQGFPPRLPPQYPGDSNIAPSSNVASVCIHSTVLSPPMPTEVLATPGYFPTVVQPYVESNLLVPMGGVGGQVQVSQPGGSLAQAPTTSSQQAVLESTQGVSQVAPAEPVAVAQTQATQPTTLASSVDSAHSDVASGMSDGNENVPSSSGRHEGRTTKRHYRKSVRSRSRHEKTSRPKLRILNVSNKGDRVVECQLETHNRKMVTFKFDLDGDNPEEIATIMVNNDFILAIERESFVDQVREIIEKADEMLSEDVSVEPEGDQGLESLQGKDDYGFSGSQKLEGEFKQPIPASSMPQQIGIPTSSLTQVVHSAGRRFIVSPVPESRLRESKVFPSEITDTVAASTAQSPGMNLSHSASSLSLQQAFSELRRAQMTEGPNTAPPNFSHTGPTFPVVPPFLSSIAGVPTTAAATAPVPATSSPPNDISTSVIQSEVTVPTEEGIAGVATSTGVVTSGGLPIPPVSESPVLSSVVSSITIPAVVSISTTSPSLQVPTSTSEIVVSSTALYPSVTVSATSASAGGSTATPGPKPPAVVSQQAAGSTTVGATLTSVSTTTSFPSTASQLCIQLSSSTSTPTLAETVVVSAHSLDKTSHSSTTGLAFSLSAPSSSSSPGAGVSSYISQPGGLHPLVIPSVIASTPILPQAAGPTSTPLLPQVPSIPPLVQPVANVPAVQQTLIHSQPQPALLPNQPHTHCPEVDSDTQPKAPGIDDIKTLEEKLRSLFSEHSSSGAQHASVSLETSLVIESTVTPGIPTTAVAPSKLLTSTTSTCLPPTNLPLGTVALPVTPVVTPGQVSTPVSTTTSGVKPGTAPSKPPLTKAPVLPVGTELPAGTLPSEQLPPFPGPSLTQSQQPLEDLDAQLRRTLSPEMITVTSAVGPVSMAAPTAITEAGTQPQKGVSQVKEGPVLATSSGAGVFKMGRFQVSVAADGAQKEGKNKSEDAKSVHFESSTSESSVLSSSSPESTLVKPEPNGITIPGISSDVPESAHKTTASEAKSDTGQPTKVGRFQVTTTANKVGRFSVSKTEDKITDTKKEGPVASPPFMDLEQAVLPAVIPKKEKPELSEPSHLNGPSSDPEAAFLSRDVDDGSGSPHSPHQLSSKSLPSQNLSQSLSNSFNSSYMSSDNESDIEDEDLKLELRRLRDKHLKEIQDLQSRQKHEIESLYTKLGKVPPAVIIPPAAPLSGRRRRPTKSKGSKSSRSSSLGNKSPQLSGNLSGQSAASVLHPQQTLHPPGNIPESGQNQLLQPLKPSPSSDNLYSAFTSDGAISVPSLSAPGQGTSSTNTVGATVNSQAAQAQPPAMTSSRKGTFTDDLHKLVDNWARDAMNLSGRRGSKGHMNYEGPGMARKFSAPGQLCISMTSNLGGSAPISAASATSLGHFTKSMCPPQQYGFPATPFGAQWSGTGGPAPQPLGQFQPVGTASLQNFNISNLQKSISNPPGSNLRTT
Summary of the method: as §1

## [Cu+2].[Cu+2].[Cu+2].c1ccc(-c2csc(NCCN(CCNc3nc(-c4ccccn4)cs3)CCNc3nc(-c4ccccn4)cs3)n2)nc1.c1ccc(-c2csc(NCCN(CCNc3nc(-c4ccccn4)cs3)CCNc3nc(-c4ccccn4)cs3)n2)nc1 [[L2Cu3]6+]
[1]; RIPK2
  % Inhibition Run 1: 16.3%
  % Inhibition Run 2: 2.5%
  % Inhibition, Mean: 9%
  mean % activity: 91%
[1]; RIPK2, Run 1
  % activity: 83.7%
[1]; RIPK2, Run 2
  % activity: 97.5%
[2]
  % Inhibition Run 1: 64.9%
  % Inhibition Run 2: 65.8%
  % Inhibition, Mean: 65%
  mean % activity: 35%
[2]; Run 1
  % activity: 35.1%
[2]; Run 2
  % activity: 34.2%
[3]; ZAP70
  % Inhibition Run 1: 94%
  % Inhibition Run 2: 89.2%
  % Inhibition, Mean: 92%
  mean % activity: 8%
[3]; ZAP70, Run 1
  % activity: 6%
[3]; ZAP70, Run 2
  % activity: 10.8%
[3]; ZAP70, 10 µM
  % Activity inhibition Mean: 91.6%
  % Activity inhibition Run 1: 94%
  % Activity inhibition Run 2: 89.2%
  % Activity remaining Run 1: 6.00%
  % Activity remaining Run 2: 10.80%
[4]
  % Inhibition Run 1: 28.4%
  % Inhibition Run 2: 32.5%
  % Inhibition, Mean: 30%
  mean % activity: 70%
[4]; Run 1
  % activity: 71.6%
[4]; Run 2
  % activity: 67.5%
[5]; RSK2
  % Inhibition Run 1: 87.4%
  % Inhibition Run 2: 87.7%
  % Inhibition, Mean: 88%
  mean % activity: 12%
[5]; RSK2, Run 1
  % activity: 12.6%
[5]; RSK2, Run 2
  % activity: 12.3%
[6]; DAPK1
  % Activation, Mean value: 1.5%
  % Inhibition Run 1: 6.2%
  % Inhibition Run 2: -9.2%
  % Inhibition, Mean: -1.5%
  mean % activity: 102%
[6]; DAPK1, Run 1
  % activity: 93.8%
[6]; DAPK1, Run 2
  % activity: 109.2%
[7]
  % Inhibition Run 1: 18.5%
  % Inhibition Run 2: 12.4%
  % Inhibition, Mean: 15%
  mean % activity: 85%
[7]; Run 1
  % activity: 81.5%
[7]; Run 2
  % activity: 87.6%
[8]; TTBK1
  % Activation, Mean value: 9%
  % Inhibition Run 1: 10%
  % Inhibition Run 2: -27.8%
  % Inhibition, Mean: -9%
  mean % activity: 109%
[8]; TTBK1, Run 1
  % activity: 90%
[8]; TTBK1, Run 2
  % activity: 127.8%
[9]; TTBK2
  % Inhibition Run 1: 13%
  % Inhibition Run 2: -12.2%
  % Inhibition, Mean: 0.4%
  mean % activity: 100%
[9]; TTBK2, Run 1
  % activity: 87%
[9]; TTBK2, Run 2
  % activity: 112.2%
[10]; PIM3
  % Inhibition Run 1: 54.7%
  % Inhibition Run 2: 54.9%
  % Inhibition, Mean: 55%
  mean % activity: 45%
[10]; PIM3, Run 1
  % activity: 45.3%
[10]; PIM3, Run 2
  % activity: 45.1%
[11]; MNK1
  % Inhibition Run 1: 85.8%
  % Inhibition Run 2: 80.4%
  % Inhibition, Mean: 83%
  mean % activity: 17%
[11]; MNK1, Run 1
  % activity: 14.2%
[11]; MNK1, Run 2
  % activity: 19.6%
[12]; WNK1
  % Inhibition Run 1: 12.1%
  % Inhibition Run 2: -2.6%
  % Inhibition, Mean: 4.75%
  mean % activity: 95%
[12]; WNK1, Run 1
  % activity: 87.9%
[12]; WNK1, Run 2
  % activity: 102.6%
